Source: US20250327028A1, “ENGINEERED PLATELETS AS TARGETED PROTEIN DEGRADERS” (Wisconsin Alumni Research Foundation, priority 2024, published 2025)

Experiments:
PD-L1 [1] = molecular target: T1, PD-L1 (Mus musculus, UniProt Q9EP73); assay: Immunoblot analysis of PD-L1 degradation in 4T1 cells after free HAC treatment; assay type: cell-based, murine
T1 construct: endogenous in cells; host or cells: 4T1
Text: (§1) Immunoblot analysis: Immunoblot analysis was used to evaluate the expression of BRD4, HSP90, HSP90a, and PD-L1 in 4T1, WT MDA-MB-231, HSP90α-KO MDA-MB-231 or PEA-10 cells after various treatments and also served as the detection method for IP or co-IP experiments. The procedures for preparing IP or co-IP samples were indicated in the relevant experimental parts.
Sample preparation for various cancer cells after free HAC treatment: Various cells, including 4T1, WT MDA-MB-231, HSP90α-KO MDA-MB-231, or PEA-10 cells, were seeded in 6-well culture plates with a density of 5×10^4 cells in each well and cultured for 24 h. Then, if HAI pretreatment was performed, the cells were incubated in the HAI-containing blank medium at different concentrations for 2 h and washed with PBS twice before the following treatments. The medium in the corresponding wells was replaced with 1 mL of blank medium containing the DMSO vehicle, HACs, or the combinations of various free ligands at the predetermined concentrations. After incubation for the indicated time points, cells were washed with PBS and lysed on ice with the relevant lysis buffer containing PMSF (1 mM) and the phosphatase inhibitor cocktail for 30 min. As for the conditioned medium (CM), the culturing complete medium of the corresponding cancer cells in each well was collected after 24-h incubation and subjected to centrifugation at 2000 rpm for 5 min to obtain the supernatant. The filtrate of the supernatants was collected following filtration over a 0.45 μm filter, serving as the CM. Regarding the cell samples for BRD4 detection, the lysis buffer containing HEPES-KOH (pH=7.5, 10 mM), NaCl (500 mM), EDTA (5 mM), NP-40 (1%), and SDS (0.1%) was used with the indicated PMSF and phosphatase inhibitor cocktail. As for PD-L1 detection, RIPA buffer (Thermo Fisher Scientific/J63306.AP) was used with the indicated PMSF and phosphatase inhibitor cocktail.
General procedures for immunoblot analysis: After a 30-min lysis, the lysates were centrifuged at 10,000 g for 10 minutes at 4° C., and the corresponding supernatants were collected, followed by quantification of the total proteins in the supernatant through the BCA assay. Afterward, the proteins in the supernatant were mixed with the loading buffer and heated at 95° C. for 15 min. Equal amounts of proteins from different samples ([…]) were loaded into the Bis-Tris gel formulated with Bis-Tis buffer, 30% acrylamide/Bis, 10% ammonium persulfate (APS) solution, and TEMED. […] Finally, the bands were treated with electrochemiluminescence (ECL) western blot substrate, detected by the iBright™ imaging system and quantified with ImageJ software. […]

4T1-Luc tumors [2] = assay: Flow cytometry and ELISA of infiltrated effector T cells and cytokines within tumor tissues of post-surgery mice; assay type: in vivo, BALB/c mice; conditions: flow cytometry, two weeks after last treatment
Description: Flow cytometry analysis and ELISA assay were adopted to study the infiltrated effector T cells and immune-associated cytokines within the tumor tissues. The same post-surgery mouse models were established and randomly divided into 4 groups (n=5), which were i.v. injected with PBS, nPLT (2×10^8 platelets), eDePLT (2×10^8 platelets), and free eHAC (5 mg/kg) every three days for four times starting from day 1 post-surgery. After 2 weeks of the last treatment, the tumor tissues were isolated, weighed, and cut into small pieces, which were then soaked in 2 mL blank medium containing collagenase (MilliporeSigma/C5138) and incubated at 37° C. for 1 h. The cell suspensions were centrifugated at 1200 rpm for 3 min, and 200 μL of the corresponding supernatants were collected and subjected to ELISA analysis for IFN-γ and TNF-α. The single cell suspensions were collected through filtration of the suspension over 40 µm nylon cell strainer (Falcon®/352340). For the staining, 1×10^6 cells for each sample were collected and incubated with 100 μL of PBS containing PE anti-mouse CD3 antibody and APC anti-mouse CD8a antibody in the dark for 30 min at 4° C. Then, the samples were centrifuged at 2,000 rpm for 5 min at room temperature. The pellets were resuspended in PBS and subjected to the flow cytometry analysis.

4T1-Luc tumors [3] = assay: Treatment efficacy in post-surgery BALB/c mice with orthotopic 4T1-Luc breast cancer; assay type: in vivo; conditions: 2×10^8 platelets i.v. or free HAC 5 mg/kg i.p., every third day for 4 times
Text: Evaluation of treatment efficacy and biosafety in post-surgical 4T1 tumor-bearing mice: Post-surgery BALB/c mice with orthotopic 4T1-Luc-breast cancer were used to evaluate the tumor recurrence, metastasis, and biosafety profiles after iDePLT or eDePLT treatments. The treatment efficacy of iDePLT was also studied in the post-surgery NSG mice with orthotopic patient-derived xenografts (PDX) breast cancer.
Establishment of post-surgery models with BALB/c mice: 1×10^6 4T1-Luc cells were suspended in a PBS containing 50% Matrigel® (Corning®/354234). Female 8-week-old BALB/c mice were anesthetized and injected with 50 μL of the cell suspensions into the fourth mammary gland fat pads. After the tumor volumes reached about 100-200 mm^3, the tumor-bearing mice were anesthetized and placed under the microscope, followed by surgical resection to totally remove the visible tumor tissues. Following wound closure, the post-surgery mice were randomly assigned to different treatment groups.
Evaluation of treatment efficacy and biosafety in post-surgery BALB/c mice: As for the treatments with platelets, the platelets were freshly isolated from the healthy female BALB/c mice and suspended in PBS for intravenous (i.v.) injection after the necessary engineering. The free iHAC and eHAC were intraperitoneally (i.p.) injected after dispersing in the formulation of 10% DMSO, 40% polyethylene glycol 300 (PEG300), 5% Tween TM-80, and 45% saline. From the same day after surgery, the mice were anesthetized and i.p. injected with D-luciferin potassium salt (150 mg/kg) in 100 μL in PBS. The bioluminescence of post-surgery mice in each group was detected by Perkin Elmer IVIS every five days from the day of surgery, and intensity was analyzed by Living Image Software v.4.3.1. […] During the treatment course, the body weight of each post-surgery mouse was monitored daily. […]

PD-L1 [4] = molecular target: T2, PD-L1 (Homo sapiens, UniProt Q9NZQ7); assay: PD-L1 distribution in WT MDA-MB-231 cells (fluorescence observation); assay type: cell-based; conditions: 2 h, compared to PU-H71 plus BMS-1166
T2 construct: endogenous in cells; host or cells: HSP90α-KO MDA-MB-231
Description: PD-L1 distribution in WT MDA-MB-231 cells: 5×10^4 WT MDA-MB-231 cells were seeded in a confocal dish and cultured for 24 h at 37° C. Then, the cells were treated with eHAC or the combination of PU-H71 plus BMS-1166 at 0.5 μM for 2 h. Subsequently, the cells were washed with PBS twice and fixed with 4% PFA at room temperature for 20 min. The following procedures were the same as the above colocalization observation except for replacing the anti-LAMP1 antibody with rabbit anti-PD-L1 antibody (Invitrogen/PA5-20343).

PD-L1 [5] = molecular target: T2, PD-L1; assay: PD-L1 degradation in HSP90α-KO MDA-MB-231 cells; assay type: cell-based
Text: as §1
(§2) Sample preparation for various cancer cells after free HAC treatment: Various cells, including 4T1, WT MDA-MB-231, HSP90α-KO MDA-MB-231, or PEA-10 cells, were seeded in 6-well culture plates with a density of 5×10^4 cells in each well and cultured for 24 h. Then, if HAI pretreatment was performed, the cells were incubated in the HAI-containing blank medium at different concentrations for 2 h and washed with PBS twice before the following treatments. […]
(§3) General procedures for immunoblot analysis: After a 30-min lysis, the lysates were centrifuged at 10,000 g for 10 minutes at 4° C., and the corresponding supernatants were collected, followed by quantification of the total proteins in the supernatant through the BCA assay. […] Finally, the bands were treated with electrochemiluminescence (ECL) western blot substrate, detected by the iBright™ imaging system and quantified with ImageJ software. […]

PD-L1 [6] = molecular target: T1, PD-L1; assay: Immunoblot analysis of PD-L1 expression in LRP-1-deficient PEA-10 cells; assay type: cell-based, murine; conditions: PEA-10 (LRP-1-deficient), various concentrations, 8 h, CM
Text: as §1, §2, §3

T1 sequence (Q9EP73 19-290): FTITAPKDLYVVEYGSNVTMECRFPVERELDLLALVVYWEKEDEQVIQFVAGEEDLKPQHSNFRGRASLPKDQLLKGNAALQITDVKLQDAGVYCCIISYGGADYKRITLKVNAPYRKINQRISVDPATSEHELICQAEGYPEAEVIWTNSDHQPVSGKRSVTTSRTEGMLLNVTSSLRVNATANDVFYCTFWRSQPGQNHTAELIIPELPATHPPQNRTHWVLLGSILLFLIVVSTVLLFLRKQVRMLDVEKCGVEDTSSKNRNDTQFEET
T2 sequence (Q9NZQ7 19-290): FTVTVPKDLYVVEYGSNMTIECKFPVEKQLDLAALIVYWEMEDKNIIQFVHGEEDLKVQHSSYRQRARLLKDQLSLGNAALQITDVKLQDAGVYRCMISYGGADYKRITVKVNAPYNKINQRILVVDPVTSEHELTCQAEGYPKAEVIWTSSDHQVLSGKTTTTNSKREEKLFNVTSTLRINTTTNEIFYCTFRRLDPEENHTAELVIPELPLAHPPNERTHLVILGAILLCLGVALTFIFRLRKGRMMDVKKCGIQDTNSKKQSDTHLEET

Cc1c(COc2cc(OCc3cccc(C#N)c3)c(CN3C[C@H](O)C[C@@H]3C(=O)NCCOCc3cn(CCCC(=O)N(CC#N)S(=O)(=O)c4ccc(C(=O)NCCCn5c(Sc6cc7c(cc6I)OCO7)nc6c(N)ncnc65)cc4)nn3)cc2Cl)cccc1-c1ccc2c(c1)OCCO2 [eHAC, (2R,4R)—N-(2-((1-(4-((4-((3-(6-amino-8-((6-iodobenzo[d][1,3]dioxol-5-yl)thio)-9H-purin-9-yl)propyl)carbamoyl)-N-(cyanomethyl)phenyl)sulfonamido)-4-oxobutyl)-1H-1,2,3-triazol-4-yl)methoxy)ethyl)-1-(5-chloro-2-((3-cyanobenzyl)oxy)-4-((3-(2,3-dihydrobenzo[b][1,4]dioxin-6-yl)-2-methylbenzyl)oxy)benzyl)-4-hydroxypyrrolidine-2-carboxamide]
PD-L1 expression in presence of lysosome degradation inhibitor leupeptin (PD-L1 [1]; 4T1 cells, 5 μM, 8 h): rescue effect on PD-L1 expression
PD-L1 expression, eHAC dispersed in blank medium (BM) (PD-L1 [1]; 4T1 cells, blank medium): just slightly reduced the PD-L1 expression within 12 h
PD-L1 levels, eHAC suspended in conditioned medium (CM) (PD-L1 [1]; 4T1 cells, conditioned medium, same time points): could efficiently downregulate PD-L1 levels
time and concentration dependence of PD-L1 reduction (PD-L1 [1]; conditioned medium): in a time- and concentration-dependent manner
infiltration / ratio of CD3+CD8+ T cells in tumor tissues (4T1-Luc tumors [2]): slightly elevated the ratio of CD3^+CD8^+ T cells
tumor recurrence at the surgical site (bioluminescence) (4T1-Luc tumors [3]): same severe relapse
PD-L1 distribution (PD-L1 [4]): rapidly aggregated into punctate structures and moved towards cytosol
PD-L1 degradation potency (PD-L1 [5]): considerably compromised
PD-L1 degradation (PD-L1 [6]): failed to induce obvious PD-L1 degradation
